Measurements published in ChEMBL document CHEMBL3784961, “Kinetics and metabolism of paracetamol and phenacetin” (Br J Clin Pharmacol, 1980).
Blank lines part the entries; values can stand above or below the molecule they belong to.

Legend:
[1] = test system: Homo sapiens; test: Renal clearance in healthy human assessed as paracetamol sulfate level at 20 mg/kg; assay type: ADME, organism-based, Kidney; settings: in vivo
[2] = test system: Homo sapiens; test: Renal clearance in healthy human assessed as paracetamol glucuronide level at 20 mg/kg; assay type: ADME, organism-based, Kidney; settings: in vivo
[3] = test system: Homo sapiens; test: Drug recovery in poisoned human patient (8 patients) with severe liver damage receiving NAC treatment assessed as mercapturate plus cysteine conjugate level at 20 mg/kg, po; assay type: ADME, organism-based; settings: in vivo
[4] = Elimination half life in healthy adult male human subject at 12 mg/kg, po; assay type: ADME, organism-based; settings: in vivo, read-out: beta t1/2 (converted)
[5] = test system: Homo sapiens; test: Mean drug recovery in poisoned human patient (15 patients) without liver damage receiving cysteamine treatment at 20 mg/kg, po; assay type: ADME, organism-based; settings: in vivo
[6] = Systemic availability in healthy adult male human subject at 12 mg/kg, po; assay type: ADME, organism-based; settings: in vivo
[7] = test system: Homo sapiens; test: Drug recovery in poisoned human patient (3 patients) with severe liver damage receiving methionine treatment assessed as glucuronide conjugate level at 20 mg/kg, po; assay type: ADME, organism-based; settings: in vivo
[8] = test system: Homo sapiens; test: Drug recovery in poisoned human patient (15 patients) without liver damage receiving cysteamine treatment assessed as glucuronide conjugate level at 20 mg/kg, po; assay type: ADME, organism-based; settings: in vivo
[9] = Half life in healthy young adult human; assay type: ADME, organism-based; settings: in vivo
[10] = test system: Homo sapiens; test: Drug recovery in poisoned human patient (15 patients) without liver damage receiving cysteamine treatment assessed as mercapturate plus cysteine conjugate level at 20 mg/kg, po; assay type: ADME, organism-based; settings: in vivo
[11] = test system: Homo sapiens; test: Drug recovery in poisoned human patient (8 patients) with severe liver damage receiving supportive treatment assessed as glucuronide conjugate level at 20 mg/kg, po; assay type: ADME, organism-based; settings: in vivo
[12] = test system: Homo sapiens; test: Mean drug recovery in poisoned human patient (3 patients) with severe liver damage receiving methionine treatment at 20 mg/kg, po; assay type: ADME, organism-based; settings: in vivo
[13] = test system: Homo sapiens; test: Drug recovery in poisoned human patient (8 patients) with severe liver damage receiving supportive treatment assessed as sulphate conjugate level at 20 mg/kg, po; assay type: ADME, organism-based; settings: in vivo
[14] = test system: Homo sapiens; test: Drug recovery in poisoned human patient (8 patients) with severe liver damage receiving NAC treatment assessed as glucuronide conjugate level at 20 mg/kg, po; assay type: ADME, organism-based; settings: in vivo
[15] = test system: Homo sapiens; test: Drug recovery in poisoned human patient (23 patients) without liver damage receiving NAC treatment assessed as sulphate conjugate level at 20 mg/kg, po; assay type: ADME, organism-based; settings: in vivo
[16] = test system: Homo sapiens; test: Drug recovery in healthy human subjects (8 subjects) assessed as glucuronide conjugate level at 20 mg/kg, po; assay type: ADME, organism-based; settings: in vivo
[17] = Volume of distribution in 70 kg adult human at 12 mg/kg, iv infused over 2 mins; settings: in vivo
[18] = Drug excretion in urine of human at 20 mg/kg assessed as mercapturic conjugate level after 24 hrs; assay type: ADME, organism-based; settings: in vivo
[19] = test system: Homo sapiens; test: Drug recovery in poisoned human patient (8 patients) with severe liver damage receiving NAC treatment assessed as sulphate conjugate level at 20 mg/kg, po; assay type: ADME, organism-based; settings: in vivo
[20] = test system: Homo sapiens; test: Drug recovery in poisoned human patient (23 patients) without liver damage receiving NAC treatment assessed as mercapturate plus cysteine conjugate level at 20 mg/kg, po; assay type: ADME, organism-based; settings: in vivo
[21] = test system: Homo sapiens; test: Drug recovery in poisoned human patient (8 patients) without liver damage receiving methionine treatment assessed as glucuronide conjugate level at 20 mg/kg, po; assay type: ADME, organism-based; settings: in vivo
[22] = test system: Homo sapiens; test: Mean drug recovery in poisoned human patient (8 patients) with severe liver damage receiving supportive treatment at 20 mg/kg, po; assay type: ADME, organism-based; settings: in vivo
[23] = test system: Homo sapiens; test: Drug recovery in poisoned human patient (8 patients) without liver damage receiving methionine treatment assessed as sulphate conjugate level at 20 mg/kg, po; assay type: ADME, organism-based; settings: in vivo
[24] = Drug excretion in urine of healthy young adult human assessed as sulphate conjugate level after 24 hrs; assay type: ADME; settings: in vivo
[25] = Drug excretion in human urine assessed as unchanged parent compound level; assay type: ADME; settings: read-out: Drug excretion
[26] = test system: Homo sapiens; test: Drug recovery in poisoned human patient (9 patients) without liver damage receiving supportive treatment assessed as mercapturate plus cysteine conjugate level at 20 mg/kg, po; assay type: ADME, organism-based; settings: in vivo
[27] = test system: Homo sapiens; test: Drug recovery in poisoned human patient (23 patients) without liver damage receiving NAC treatment assessed as glucuronide conjugate level at 20 mg/kg, po; assay type: ADME, organism-based; settings: in vivo
[28] = Drug excretion in urine of healthy young adult human assessed as unchanged parent drug level after 24 hrs; assay type: ADME; settings: read-out: Drug excretion
[29] = Half life in elderly human; assay type: ADME, organism-based; settings: in vivo
[30] = test system: Homo sapiens; test: Distribution half life in healthy adult male human subject at 12 mg/kg, iv; assay type: ADME, organism-based; settings: in vivo
[31] = Systemic availability in human; assay type: ADME, organism-based; settings: in vivo
[32] = Elimination half life in healthy adult male human subject at 12 mg/kg, iv; assay type: ADME, organism-based; settings: in vivo, read-out: beta t1/2 (converted)
[33] = test system: Homo sapiens; test: Mean drug recovery in poisoned human patient (8 patients) without liver damage receiving methionine treatment at 20 mg/kg, po; assay type: ADME, organism-based; settings: in vivo
[34] = test system: Homo sapiens; test: Drug recovery in poisoned human patient (8 patients) without liver damage receiving methionine treatment assessed as mercapturate plus cysteine conjugate level at 20 mg/kg, po; assay type: ADME, organism-based; settings: in vivo
[35] = test system: Homo sapiens; test: Mean drug recovery in poisoned human patient (8 patients) with severe liver damage receiving NAC treatment at 20 mg/kg, po; assay type: ADME, organism-based; settings: in vivo
[36] = test system: Homo sapiens; test: Drug recovery in poisoned human patient (9 patients) without liver damage receiving supportive treatment assessed as glucuronide conjugate level at 20 mg/kg, po; assay type: ADME, organism-based; settings: in vivo
[37] = Volume of distribution at central and peripheral compartment in healthy adult male human subject at 12 mg/kg, iv; settings: in vivo
[38] = test system: Homo sapiens; test: Drug recovery in healthy human subjects (8 subjects) assessed as mercapturate plus cysteine conjugate level at 20 mg/kg, po; assay type: ADME, organism-based; settings: in vivo
[39] = test system: Homo sapiens; test: Mean drug recovery in poisoned human patient (9 patients) without liver damage receiving supportive treatment at 20 mg/kg, po; assay type: ADME, organism-based; settings: in vivo
[40] = test system: Homo sapiens; test: Drug recovery in poisoned human patient (3 patients) with severe liver damage receiving methionine treatment assessed as sulphate conjugate level at 20 mg/kg, po; assay type: ADME, organism-based; settings: in vivo
[41] = test system: Homo sapiens; test: Drug recovery in poisoned human patient (8 patients) with severe liver damage receiving supportive treatment assessed as mercapturate plus cysteine conjugate level at 20 mg/kg, po; assay type: ADME, organism-based; settings: in vivo
[42] = Volume of distribution at central compartment in healthy adult male human subject at 12 mg/kg, iv; settings: in vivo
[43] = test system: Homo sapiens; test: Drug recovery in poisoned human patient (9 patients) without liver damage receiving supportive treatment assessed as sulphate conjugate level at 20 mg/kg, po; assay type: ADME, organism-based; settings: in vivo
[44] = test system: Homo sapiens; test: Drug recovery in poisoned human patient (15 patients) without liver damage receiving cysteamine treatment assessed as sulphate conjugate level at 20 mg/kg, po; assay type: ADME, organism-based; settings: in vivo
[45] = test system: Homo sapiens; test: Mean drug recovery in poisoned human patient (23 patients) without liver damage receiving NAC treatment at 20 mg/kg, po; assay type: ADME, organism-based; settings: in vivo
[46] = test system: Homo sapiens; test: Drug recovery in healthy human subjects (8 subjects) assessed as sulphate conjugate level at 20 mg/kg, po; assay type: ADME, organism-based; settings: in vivo
[47] = Drug excretion in urine of healthy young adult human assessed as glucuronide conjugate level after 24 hrs; assay type: ADME; settings: in vivo
[48] = test system: Homo sapiens; test: Drug recovery in poisoned human patient (3 patients) with severe liver damage receiving methionine treatment assessed as mercapturate plus cysteine conjugate level at 20 mg/kg, po; assay type: ADME, organism-based; settings: in vivo
[49] = Apparent volume of distribution in human; settings: in vivo
[50] = Half life in human; assay type: ADME, organism-based; settings: in vivo

CL [1]: 166 mL/min
SMILES: CC(=O)Nc1ccc(OS(=O)(=O)O)cc1

CL [2]: 130 mL/min
SMILES: CC(=O)Nc1ccc(O[C@@H]2O[C@H](C(=O)O)[C@@H](O)[C@H](O)[C@H]2O)cc1 [ACETAMINOPHEN GLUCURONIDE]

SMILES: CC(=O)Nc1ccc(O)cc1 [ACETAMINOPHEN]
Drug recovery [3]: 16.5% | half-life [4]: 1.97 h | Drug recovery [5]: 14.5 g | bioavailability [6]: 76% | Drug recovery [7]: 68.9% | Drug recovery [8]: 72.4% | half-life [9]: 2 h | Drug recovery [10]: 6.4% | Drug recovery [11]: 66.5% | Drug recovery [12]: 13.7 g | Drug recovery [13]: 9.7% | Drug recovery [14]: 60.9% | Drug recovery [15]: 14.5% | Drug recovery [16]: 54.7% | Vd at 2 min [17]: 65 L | Drug excretion [18]: 4% | Drug recovery [19]: 13.3% | Drug recovery [20]: 10.6% | Drug recovery [21]: 73.9% | Drug recovery [22]: 11.8 g | Drug recovery [23]: 10.1% | Drug excretion [24]: 30% | dose excreted [25]: 2% | Drug recovery [26]: 6.9% | Drug recovery [27]: 63.6% | dose excreted at 24 h [28]: 4% | half-life [29]: 2.17 h | alphat1/2 [30]: 0.13 h | bioavailability [31]: 75% | half-life [32]: 1.98 h | Drug recovery [33]: 14.5 g | Drug recovery [34]: 8.1% | Drug recovery [35]: 13 g | Drug recovery [36]: 75.3% | Vd [37]: 0.897 L/kg | Drug recovery [38]: 8% | Drug recovery [39]: 10.3 g | Drug recovery [40]: 9.1% | Drug recovery [41]: 15.2% | Vd [42]: 0.509 L/kg | Drug recovery [43]: 9.3% | Drug recovery [44]: 11.9% | Drug recovery [45]: 13.4 g | Drug recovery [46]: 32.3% | Drug excretion [47]: 55% | Drug recovery [48]: 13.8% | Vd [49]: 0.9 L/kg

half-life [50]: 1 h | dose excreted [25]: < 0.5%
SMILES: CCOc1ccc(NC(C)=O)cc1 [PHENACETIN]
